Assays:
[1] = general statement in the description; cited from earlier work
[2] = solubility, turbidity and stability of ingredients in water; assay type: physicochemical; settings: minerals considered for the concentrate
Description: Each ingredient or nutrient is evaluated at suitable concentration (based on actual usage level) in 100 ml deionized water enclosed in glass bottle and checked for turbidity. Only non turbidity producing materials (estimated at 25 NTU or less) were selected. Visual evaluation also conducted to ensure clear liquids are obtained. Solutions with an estimated 30 NTG and above are eliminated as potential ingredients. Bottles were also checked for precipitated solids at 0, 2, 4, 6, 8, 10 and 24 hours at room temperature. If precipitate is observed, the ingredient/nutrient is rendered unusable for producing appealing liquid nutritional supplement. Furthermore, ingredients are evaluated in a final diluted liquid nutritional supplement and/or diluents to ensure that dilution will not change the physical appearance of concentrates. […] Insoluble materials are excluded from the formulation. Saturation point is also observed for each ingredient/nutrient to ensure that no precipitation will occur. […] Each ingredient or nutrient is evaluated at suitable concentration (based on actual usage level) in 100 ml deionized water enclosed in glass bottle and checked turbidity. […] Furthermore, ingredients are evaluated in a final diluted liquid nutritional supplement to ensure that dilution will not change the physical appearance of concentrates. […]

CS(C)(=O)=O [MSM, Methyl-Sulfonyl-Methane]
solubility in water [1]: readily water soluble

[Mg+2] [magnesium]
effect on clarity of concentrate and finished liquid nutritional supplement [2]: induce cloudiness and turbidity | solubility [2]: not soluble

Gelatin
solubility in water [1]: soluble only in hot water

Hydrolyzed Collagen
solubility in water [1]: readily water soluble

N[C@H]1C(O)O[C@H](CO)[C@@H](O)[C@@H]1O (some centres unmarked) [Glucosamine]
solubility in water [1]: water-soluble

O=C1O[C@H]([C@@H](O)CO)C(O)=C1O [Vitamin C, Ascorbic Acid]
stability in water [1]: degrades in water in fast fashion

Chondroitin sulfate
solubility in water [1]: soluble in water

Reference: patent publication US20090041897A1, “Transparent, concentrated liquid nutritional supplement composition” (priority 2007, published 2009)
